Test results reported in patent publication US20160256449A1, “H3 RECEPTOR ANTAGONIST FOR USE IN THE TREATMENT OF ALZHEIMER'S DISEASE” (SANOFI, priority 2013, published 2016).

Tests used:
[1] = test system: patients with mild to moderate Alzheimer's disease; test: clinical study, actigraphy (Actiwatch); assay type: in vivo, human; settings: for Interdaily variability, Ch from bl FUP / Intradaily stability, Ch from bl FUP / Mean awakening duration, Ch from bl FUP / Number of awakenings, Ch from bl FUP / Relative amplitude, Ch from bl FUP / Sleep efficiency, Ch from bl FUP / Sleep fragmentation, Ch from bl FUP / Total sleep time, Ch from bl FUP / Wake after sleep onset, Ch from bl FUP: follow-up
From the text: Actigraphy as used herein refers to an assessment of activity measured by an Actiwatch®, which was worn day and night by the patient during 4 periods of 15 days: before randomization, immediately after randomization, around week 12 and after treatment discontinuation around week 34 during the clinical study described in Example 2. The watch measures movements translating into assessment of sleep quality (number and duration of awakenings, wake after sleep onset or WASO, fragmentation index, sleep efficiency, total sleep period, total sleep time) and circadian rhythms ([…], relative amplitude).
A randomized, double-blind, parallel-group, placebo-controlled clinical trial was performed to study the effect on cognitive performance, safety, and tolerability of 2-(cyclohexylmethyl)-N-{2-[(2S)-1-methylpyrrolidin-2-yl]ethyl}-1,2,3,4-tetrahydroisoquinoline-7-sulfonamide difumarate monohydrate as adjunct treatment to donepezil.
More specifically, patients with mild to moderate Alzheimer's disease on stable donepezil therapy were randomized to receive doses of 0.5 mg, 2 mg, or 5 mg/day of 2-(cyclohexylmethyl)-N-{2-[(2S)-1-methylpyrrolidin-2-yl]ethyl}-1,2,3,4-tetrahydroisoquinoline-7-sulfonamide difumarate monohydrate or placebo for 24 weeks, with a 10 week follow-up period.
Patients were randomized to receive 0.5 mg, 2 mg, or 5 mg of 2-(cyclohexylmethyl)-N-{2-[(2S)-1-methylpyrrolidin-2-yl]ethyl}-1,2,3,4-tetrahydroisoquinoline-7-sulfonamide difumarate monohydrate (measured in base form), or matching placebo once a day, with donepezil (5 mg or 10 mg in the form the patient took prior to enrollment), for 24 weeks, with or without food.

scopolamine treated mice = test: object recognition task in scopolamine-treated mice; assay type: in vivo
From the text: FIG. 2 illustrates the results of the effect of a co-treatment with 2-(cyclohexylmethyl)-N-{2-[(2S)-1-methylpyrrolidin-2-yl]ethyl}-1,2,3,4-tetrahydroisoquinoline-7-sulfonamide and donepezil on recognition memory deficit in scopolamine-treated mice using the object recognition task.
The results of this study are depicted in FIG. 2.

Interdaily variability, Ch from bl W2 ([1]; 0.5 mg/day with donepezil): 0.01
Interdaily variability, Ch from bl W12 ([1]; 0.5 mg/day with donepezil): 0.04
Intradaily stability, Ch from bl W2 ([1]; 0.5 mg/day with donepezil): −0.03
Intradaily stability, Ch from bl W12 ([1]; 0.5 mg/day with donepezil): −0.06
Mean awakening duration, Ch from bl W2 ([1]; 0.5 mg/day with donepezil): 0.08 min
Mean awakening duration, Ch from bl W12 ([1]; 0.5 mg/day with donepezil): 0.22 min
Mean awakening duration, significance (unlabelled line under Ch from bl W12) ([1]; 0.5 mg/day with donepezil): 0.0109
Number of awakenings, Ch from bl W2 ([1]; 0.5 mg/day with donepezil): −0.37
Number of awakenings, Ch from bl W12 ([1]; 0.5 mg/day with donepezil): −0.55
Relative amplitude, Ch from bl W2 ([1]; 0.5 mg/day with donepezil): 0.00
Relative amplitude, Ch from bl W12 ([1]; 0.5 mg/day with donepezil): 0.02
Sleep efficiency, Ch from bl W2 ([1]; 0.5 mg/day with donepezil): −0.05%
Sleep efficiency, Ch from bl W12 ([1]; 0.5 mg/day with donepezil): −0.53%
Sleep efficiency, significance (unlabelled line under Ch from bl W12) ([1]; 0.5 mg/day with donepezil): 0.0121
Sleep fragmentation, Ch from bl W2 ([1]; 0.5 mg/day with donepezil): 0.91
Sleep fragmentation, Ch from bl W12 ([1]; 0.5 mg/day with donepezil): 0.29
Total sleep time, Ch from bl W2 ([1]; 0.5 mg/day with donepezil): −0.03 h.min
Total sleep time, Ch from bl W12 ([1]; 0.5 mg/day with donepezil): 0.05 h.min
Wake after sleep onset, Ch from bl W2 ([1]; 0.5 mg/day with donepezil): 0.02 h.min
Wake after sleep onset, Ch from bl W12 ([1]; 0.5 mg/day with donepezil): 0.03 h.min
Interdaily variability, Ch from bl FUP ([1]; 0.5 mg/day with donepezil): −0.02
Intradaily stability, Ch from bl FUP ([1]; 0.5 mg/day with donepezil): 0.06
Mean awakening duration, Ch from bl FUP ([1]; 0.5 mg/day with donepezil): 0.01 min
Number of awakenings, Ch from bl FUP ([1]; 0.5 mg/day with donepezil): 1.34
Relative amplitude, Ch from bl FUP ([1]; 0.5 mg/day with donepezil): −0.01
Sleep efficiency, Ch from bl FUP ([1]; 0.5 mg/day with donepezil): −0.69%
Sleep fragmentation, Ch from bl FUP ([1]; 0.5 mg/day with donepezil): 0.98
Total sleep time, Ch from bl FUP ([1]; 0.5 mg/day with donepezil): 0.24 h.min
Wake after sleep onset, Ch from bl FUP ([1]; 0.5 mg/day with donepezil): 0.04 h.min
Interdaily variability, Ch from bl W2 ([1]; 2 mg/day with donepezil): −0.01
Interdaily variability, Ch from bl W12 ([1]; 2 mg/day with donepezil): −0.03
Intradaily stability, Ch from bl W2 ([1]; 2 mg/day with donepezil): 0.02
Intradaily stability, Ch from bl W12 ([1]; 2 mg/day with donepezil): 0.01
Mean awakening duration, Ch from bl W2 ([1]; 2 mg/day with donepezil): 0.14 min
Mean awakening duration, Ch from bl W12 ([1]; 2 mg/day with donepezil): 0.40 min
Mean awakening duration, significance (unlabelled line under Ch from bl W12) ([1]; 2 mg/day with donepezil): <.0001
Number of awakenings, Ch from bl W2 ([1]; 2 mg/day with donepezil): 0.51
Number of awakenings, Ch from bl W12 ([1]; 2 mg/day with donepezil): 1.26
Relative amplitude, Ch from bl W2 ([1]; 2 mg/day with donepezil): −0.03
Relative amplitude, Ch from bl W12 ([1]; 2 mg/day with donepezil): −0.06
Relative amplitude, significance (unlabelled line under Ch from bl W12) ([1]; 2 mg/day with donepezil): <.0001
Sleep efficiency, Ch from bl W2 ([1]; 2 mg/day with donepezil): −1.65%
Sleep efficiency, Ch from bl W12 ([1]; 2 mg/day with donepezil): −2.58%
Sleep efficiency, significance (unlabelled line under Ch from bl W12) ([1]; 2 mg/day with donepezil): <.0001
Sleep fragmentation, Ch from bl W2 ([1]; 2 mg/day with donepezil): 2.82
Sleep fragmentation, Ch from bl W12 ([1]; 2 mg/day with donepezil): 6.31
Sleep fragmentation, significance (unlabelled line under Ch from bl W12) ([1]; 2 mg/day with donepezil): <.0001
Total sleep time, Ch from bl W2 ([1]; 2 mg/day with donepezil): −0.1 h.min
Total sleep time, Ch from bl W12 ([1]; 2 mg/day with donepezil): −0.2 h.min
Wake after sleep onset, Ch from bl W2 ([1]; 2 mg/day with donepezil): 0.07 h.min
Wake after sleep onset, Ch from bl W12 ([1]; 2 mg/day with donepezil): 0.18 h.min
Wake after sleep onset, significance (unlabelled line under Ch from bl W12) ([1]; 2 mg/day with donepezil): <.0001
Interdaily variability, Ch from bl FUP ([1]; 2 mg/day with donepezil): −0.01
Intradaily stability, Ch from bl FUP ([1]; 2 mg/day with donepezil): 0.04
Mean awakening duration, Ch from bl FUP ([1]; 2 mg/day with donepezil): 0.34 min
Number of awakenings, Ch from bl FUP ([1]; 2 mg/day with donepezil): 1.27
Relative amplitude, Ch from bl FUP ([1]; 2 mg/day with donepezil): −0.07
Sleep efficiency, Ch from bl FUP ([1]; 2 mg/day with donepezil): −3.97%
Sleep fragmentation, Ch from bl FUP ([1]; 2 mg/day with donepezil): 3.93
Total sleep time, Ch from bl FUP ([1]; 2 mg/day with donepezil): −0.25 h.min
Wake after sleep onset, Ch from bl FUP ([1]; 2 mg/day with donepezil): 0.13 h.min
Total sleep time, significance (unlabelled line under Ch from bl W12) ([1]; 2 mg/day with donepezil, NS = non-significant): 0.06)
total sleep time ([1]; 5 mg): No modification
total sleep time and WASO after treatment discontinuation (FUP) ([1]; 5 mg group): improved
Interdaily variability, Ch from bl W2 ([1]; 5 mg/day with donepezil): 0.00
Interdaily variability, Ch from bl W12 ([1]; 5 mg/day with donepezil): −0.04
Intradaily stability, Ch from bl W2 ([1]; 5 mg/day with donepezil): −0.05
Intradaily stability, Ch from bl W12 ([1]; 5 mg/day with donepezil): 0.02
Mean awakening duration, Ch from bl W2 ([1]; 5 mg/day with donepezil): 0.30 min
Mean awakening duration, Ch from bl W12 ([1]; 5 mg/day with donepezil): 0.38 min
Mean awakening duration, significance (unlabelled line under Ch from bl W12) ([1]; 5 mg/day with donepezil): <.0001
Number of awakenings, Ch from bl W2 ([1]; 5 mg/day with donepezil): −0.52
Number of awakenings, Ch from bl W12 ([1]; 5 mg/day with donepezil): 0.84
Relative amplitude, Ch from bl W2 ([1]; 5 mg/day with donepezil): −0.02
Relative amplitude, Ch from bl W12 ([1]; 5 mg/day with donepezil): −0.08
Relative amplitude, significance (unlabelled line under Ch from bl W12) ([1]; 5 mg/day with donepezil): 0.0015
Sleep efficiency, Ch from bl W2 ([1]; 5 mg/day with donepezil): −1.82%
Sleep efficiency, Ch from bl W12 ([1]; 5 mg/day with donepezil): −2.26%
Sleep efficiency, significance (unlabelled line under Ch from bl W12) ([1]; 5 mg/day with donepezil): <.0001
Sleep fragmentation, Ch from bl W2 ([1]; 5 mg/day with donepezil): 3.57
Sleep fragmentation, Ch from bl W12 ([1]; 5 mg/day with donepezil): 5.83
Sleep fragmentation, significance (unlabelled line under Ch from bl W12) ([1]; 5 mg/day with donepezil): 0.0005
Total sleep time, Ch from bl W2 ([1]; 5 mg/day with donepezil): −0.11 h.min
Total sleep time, Ch from bl W12 ([1]; 5 mg/day with donepezil): −0.05 h.min
Wake after sleep onset, Ch from bl W2 ([1]; 5 mg/day with donepezil): 0.08 h.min
Wake after sleep onset, Ch from bl W12 ([1]; 5 mg/day with donepezil): 0.17 h.min
Wake after sleep onset, significance (unlabelled line under Ch from bl W12) ([1]; 5 mg/day with donepezil): <.0001
Interdaily variability, Ch from bl FUP ([1]; 5 mg/day with donepezil): 0.00
Intradaily stability, Ch from bl FUP ([1]; 5 mg/day with donepezil): −0.03
Mean awakening duration, Ch from bl FUP ([1]; 5 mg/day with donepezil): 0.12 min
Number of awakenings, Ch from bl FUP ([1]; 5 mg/day with donepezil): 1.20
Relative amplitude, Ch from bl FUP ([1]; 5 mg/day with donepezil): −0.02
Sleep efficiency, Ch from bl FUP ([1]; 5 mg/day with donepezil): −0.89%
Sleep fragmentation, Ch from bl FUP ([1]; 5 mg/day with donepezil): 3.08
Total sleep time, Ch from bl FUP ([1]; 5 mg/day with donepezil): 0.1 h.min
Wake after sleep onset, Ch from bl FUP ([1]; 5 mg/day with donepezil): 0.09 h.min
Structure (SMILES): CN1CCC[C@H]1CCNS(=O)(=O)c1ccc2c(c1)CN(CC1CCCCC1)CC2 [API, 2-(cyclohexylmethyl)-N-{2-[(2S)-1-methylpyrrolidin-2-yl]ethyl}-1,2,3,4-tetrahydroisoquinoline-7-sulfonamide difumarate monohydrate]
sleep quality assessed by wake after sleep onset (WASO) over placebo ([1]; 2 mg and 5 mg groups, from week 12): dose-dependent worsening of sleep quality
activity of the amount given alone, episodic memory deficits (scopolamine treated mice; 0.3 mg/kg alone): inactive
episodic memory deficits, co-treatment (scopolamine treated mice; 0.3 mg/kg with donepezil hydrochloride 1 mg/kg): reversed episodic memory deficits
